From PubChem BioAssay AID2060487 (Molecular Pharmacology Branch, DTP, NCI, 2025)
“And” between values parts separate entries of the source, which are not always exact repeats. Equal values may be shown once. Blank lines part the entries; values can stand above or below the compound they belong to.

Tested on: 997537-175-T-J1-PDC complex spheroid viability
Experiment: Anticancer human tumor 997537-175-T-J1-PDC patient-derived colon adenocarcinoma cell line growth inhibition [GQUAD]
Conditions: for viability, T/C: stronger effect = lower value
Description: DNA G-quadruplex Stabilizer Agents in Combinations in Complex Spheroids
A high-throughput screen of multi-cell type tumor spheroids was designed to identify active combinations of DNA G-quadruplex stabilizer agents and targeted small molecules. Complex spheroids include a stromal component modeled by human endothelial cells (HUVEC) and fibroblasts modeled by human mesenchymal stem cells (MSCs). The concentration ranges selected for each drug and investigational agent were based upon clinically achievable concentrations if the clinical Cmax of the agent was known.
Compounds. The drugs and investigational agents: pidnarulex (CX-5461; NSC782164), APTO-253 (NSC789042), BRACO-19 (NSC847499), peposertib (NSC802822), ceralasertib (NSC780249), elimusertib (NSC800525), camonsertib (NSC841442), AZD-1390 (NSC803789), olaparib (NSC753686), talazoparib (NSC767125), ART-558 (NSC835418), sotorasib (NSC818433), MRTX-1133 (NSC836407), SN-38 (NSC673596), topotecan (NSC609699), etoposide (NSC141540), doxorubicin (NSC123127), gemcitabine (NSC613327), 5-fluorouracil (NSC19893), paclitaxel (NSC125973), vemurafenib (NSC761431), panobinostat (NSC761190), R-306465 (JNJ-16241199; NSC773264), adavosertib (NSC754352), TP-3654 (NSC805149), carboplatin (NSC241240), KSQ-4279 (NSC840948), and staurosporine (NSC755774) were obtained from the National Cancer Institute (NCI) Developmental Therapeutics Program Chemical Repository (34). The FDA-approved anticancer drug set is available from the NCI Developmental Therapeutics Program. […] The stock solutions were prepared in dimethyl sulfoxide (DMSO, Sigma-Aldrich, St. Louis, MO, cat. D2650) at 800-fold the tested concentration and stored at -70 degrees C prior to their use. All drugs and investigational agents were tested over a range starting from a high concentration at or near the clinical Cmax and decreasing in half-log increments. If the clinical Cmax for an agent had not been determined, the highest concentration tested was 10 microM.
2.3 Cell Culture. All cells were maintained in an incubator at 37 degrees C and 5% CO2 with 95% humidity. The PDC lines were cultured according to standard operating procedures established by the NCI PDMR. All PDCs were thawed and cultured in Matrigel-coated flasks prepared with a working solution of 1X Ham's F-12 nutrient mix, without supplementation (Invitrogen, cat. 11765054), 100 U/mL penicillin-streptomycin (Invitrogen, cat. 15140122), and 2.5% Matrigel (Corning Inc., cat. 354248) for the first three passages. The 857933-349-R-J2-PDC line was cultured in 6C/Colon 1B media, which includes advanced DMEM/F-12 (Thermo Fisher Scientific, cat. 12634028), 10 mM HEPES (Thermo Fisher Scientific, cat. 15630080), 1X GlutaMAX supplement (Thermo Fisher Scientific, cat. 35050061), 0.1 mg/mL primocin (InvivoGen, cat. ant-pm-2), 10% defined fetal bovine serum, heat inactivated (HyClone Laboratories Inc., cat. SH30070.03HI), 50% L-WRN conditioned media (ATCC, cat. CRL-3276), 1.25 mM N-Acetyl-L-cysteine (Sigma-Aldrich, cat. A9165), 10 mM nicotinamide (Sigma-Aldrich, cat. N0636), 1X B-27 supplement (Thermo Fisher Scientific, cat. 17504044), 1X N-2 supplement (Thermo Fisher Scientific, cat. 17502048), 10 microM Y-27632 dihydrochloride (Tocris Bioscience, cat. 1254), and 50 ng/mL human EGF recombinant protein (Thermo Fisher Scientific, cat. PHG0311). The 485176-168-R4-J1-PDC line was cultured in Panc media, which includes all 6C/Colon 1B media components plus 100 ng/mL human FGF-10 (Thermo Fisher Scientific, cat. 100-26), 500 nM SB-431542 (Selleckchem, cat. S1067), and gastrin (Tocris, cat. 3006).
[…]
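Note: spheroids exposed to the agents for 7 days.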
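Throughout, for viability, T/C: 100% = DMSO vehicle control viability.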

SMILES: COc1ncnc(C2CC2)c1-c1ncc2cnn(Cc3ccc(-c4nc(C(F)(F)F)cn4C(C)C)cc3)c2n1 + CN(C)c1ccc(Nc2c3ccc(NC(=O)CCN4CCCC4)cc3nc3cc(NC(=O)CCN4CCCC4)ccc23)cc1
IC50 (curve of first compound, second compound 0.0316 µM): > 10 µM | IC50 (curve of first compound, second compound 0.1 µM): > 10 µM | IC50 (curve of first compound, second compound 0.316 µM): > 10 µM | IC50 (curve of first compound, second compound 1 µM): > 10 µM | IC50 (curve of first compound, second compound 3.16 µM): > 10 µM | IC50 (curve of first compound, second compound 10 µM): > 10 µM | viability, T/C (second compound 0.0316 µM, first compound 0.0316 µM): 99% | viability, T/C (second compound 0.0316 µM, first compound 0.1 µM): 88.7% | viability, T/C (second compound 0.0316 µM, first compound 0.316 µM): 79.4% | viability, T/C (second compound 0.0316 µM, first compound 1 µM): 77.8% | viability, T/C (second compound 0.0316 µM, first compound 3.16 µM): 77.8% | viability, T/C (second compound 0.0316 µM, first compound 10 µM): 97.8% | viability, T/C (second compound 0.1 µM, first compound 0.0316 µM): 91.4% | viability, T/C (second compound 0.1 µM, first compound 0.1 µM): 80.4% | viability, T/C (second compound 0.1 µM, first compound 0.316 µM): 82.2% | viability, T/C (second compound 0.1 µM, first compound 1 µM): 62.4% | viability, T/C (second compound 0.1 µM, first compound 3.16 µM): 81.4% | viability, T/C (second compound 0.1 µM, first compound 10 µM): 76.7% | viability, T/C (second compound 0.316 µM, first compound 0.0316 µM): 73% | viability, T/C (second compound 0.316 µM, first compound 0.1 µM): 85.5% | viability, T/C (second compound 0.316 µM, first compound 0.316 µM): 86.5% | viability, T/C (second compound 0.316 µM, first compound 1 µM): 81.1% | viability, T/C (second compound 0.316 µM, first compound 3.16 µM): 87.5% | viability, T/C (second compound 0.316 µM, first compound 10 µM): 82.1% | viability, T/C (second compound 1 µM, first compound 0.0316 µM): 69.2% | viability, T/C (second compound 1 µM, first compound 0.1 µM): 88.2% | viability, T/C (second compound 1 µM, first compound 0.316 µM): 81.5% | viability, T/C (second compound 1 µM, first compound 1 µM): 79% | viability, T/C (second compound 1 µM, first compound 3.16 µM): 85.7% | viability, T/C (second compound 1 µM, first compound 10 µM): 82.1% | viability, T/C (second compound 3.16 µM, first compound 0.0316 µM): 74.5% | viability, T/C (second compound 3.16 µM, first compound 0.1 µM): 87.6% | viability, T/C (second compound 3.16 µM, first compound 0.316 µM): 86.6% | viability, T/C (second compound 3.16 µM, first compound 1 µM): 84.3% | viability, T/C (second compound 3.16 µM, first compound 3.16 µM): 86.4% | viability, T/C (second compound 3.16 µM, first compound 10 µM): 91.8% | viability, T/C (second compound 10 µM, first compound 0.0316 µM): 75.5% | viability, T/C (second compound 10 µM, first compound 0.1 µM): 81.7% | viability, T/C (second compound 10 µM, first compound 0.316 µM): 86.8% | viability, T/C (second compound 10 µM, first compound 1 µM): 77.2% | viability, T/C (second compound 10 µM, first compound 3.16 µM): 89% | viability, T/C (second compound 10 µM, first compound 10 µM): 84.7%

SMILES: O=C(NO)c1cnc(N2CCN(S(=O)(=O)c3ccc4ccccc4c3)CC2)nc1
viability, T/C (compound 0.0316 µM): 65.3% and 97.2% and 113% | viability, T/C (compound 0.1 µM): 24.7% and 95.1% and 86.5% | viability, T/C (compound 0.316 µM): 47.4% and 101% and 105% | viability, T/C (compound 1 µM): 41.2% and 82% and 69% | viability, T/C (compound 3.16 µM): 42.8% and 22.4% and 27.3% | viability, T/C (compound 10 µM): 23.3% and 0.34% and 0.28%

IC50 (compound alone, run of 04/16/2024): > 10 µM
SMILES: Cc1cnc(CNC(=O)c2c(=O)c3ccc(N4CCCN(C)CC4)nc3n3c2sc2ccccc23)cn1
viability, T/C (compound 0.1 µM): 95.7% [middle of 12 runs] | viability, T/C (compound 0.316 µM): 96.5% [middle of 12 runs] | viability, T/C (compound 1 µM): 103% [middle of 12 runs] | viability, T/C (compound 10 µM): 91.5% [middle of 12 runs]
